Consider six molecules from patent publication US11098040B2, “Compounds and methods of use” (Ferro Therapeutics, Inc., priority 2018, dated 2021).

Molecules are shown by their SMILES.

Broadly, the IC50 is the point on the concentration scale where inhibition reaches its midpoint.

System in one data set: not listed separately
Put plainly: Whole blood stability, mouse. Format: in vitro ADME. The settings on record: 0 min. From the text:
(§1) The results of the assay on stability in blood and IC50 values for pancreatic cancer cell line KP4 are given below in Table 24.
Turning to `C[C@H]1Cc2c([nH]c3ccc(F)cc23)[C@H](c2ccc(N3CCOCC3)cc2)N1C(=O)CCl` [Compound 114], the “Whole Blood Stability % Remaining at 37° C. Mouse” value stood at 100.0%.

Take `C[C@H]1Cc2c([nH]c3ccc(C#N)cc23)[C@H](c2ccc(N3CCOCC3)cc2)N1C(=O)CCl` [Compound 115]: the “Whole Blood Stability % Remaining at 37° C. Mouse” value worked out at 100.0%.

On to `C[C@H]1Cc2c([nH]c3ccccc23)[C@H](c2ccc(NCC3CC3)cc2)N1C(=O)CCl` [Compound 116], for which the “Whole Blood Stability % Remaining at 37° C. Mouse” value worked out at 100.0%.

Turning to `CCC[C@H]1Cc2c([nH]c3ccccc23)[C@H](c2ccc(N3CCOCC3)cc2)N1C(=O)CCl` [Compound 118], the “Whole Blood Stability % Remaining at 37° C. Mouse” value is 100.0%.

`COC(=O)c1ccc([C@H]2c3sc4ccccc4c3C[C@H](C(=O)OC)N2C(=O)CCl)cc1` [Example 55c]: the “Whole Blood Stability % Remaining at 37° C. Mouse” value is 100.0%.

Regarding `COC(=O)c1ccc([C@@H]2c3sc4ccccc4c3C[C@H](C(=O)OC)N2C(=O)CCl)cc1` [Example 55d], the “Whole Blood Stability % Remaining at 37° C. Mouse” value is 100.0%.

Still in this data set, the particulars now being: 30 min.
For `C[C@H]1Cc2c([nH]c3ccc(F)cc23)[C@H](c2ccc(N3CCOCC3)cc2)N1C(=O)CCl` [Compound 114], the “Whole Blood Stability % Remaining at 37° C. Mouse” value is given as 59.3%.

For `C[C@H]1Cc2c([nH]c3ccc(C#N)cc23)[C@H](c2ccc(N3CCOCC3)cc2)N1C(=O)CCl` [Compound 115], the “Whole Blood Stability % Remaining at 37° C. Mouse” value came out at 34.2%.

With `C[C@H]1Cc2c([nH]c3ccccc23)[C@H](c2ccc(NCC3CC3)cc2)N1C(=O)CCl` [Compound 116], the “Whole Blood Stability % Remaining at 37° C. Mouse” value is reported as 82.6%.

As for `CCC[C@H]1Cc2c([nH]c3ccccc23)[C@H](c2ccc(N3CCOCC3)cc2)N1C(=O)CCl` [Compound 118], the “Whole Blood Stability % Remaining at 37° C. Mouse” value worked out at 60.7%.

Regarding `COC(=O)c1ccc([C@H]2c3sc4ccccc4c3C[C@H](C(=O)OC)N2C(=O)CCl)cc1` [Example 55c], the “Whole Blood Stability % Remaining at 37° C. Mouse” value was 0.0%.

For `COC(=O)c1ccc([C@@H]2c3sc4ccccc4c3C[C@H](C(=O)OC)N2C(=O)CCl)cc1` [Example 55d], the “Whole Blood Stability % Remaining at 37° C. Mouse” value is 0.0%.

Still in this data set, the particulars now being: 60 min.
Turning to `C[C@H]1Cc2c([nH]c3ccc(F)cc23)[C@H](c2ccc(N3CCOCC3)cc2)N1C(=O)CCl` [Compound 114], the “Whole Blood Stability % Remaining at 37° C. Mouse” value is given as 0.0%.

As for `C[C@H]1Cc2c([nH]c3ccc(C#N)cc23)[C@H](c2ccc(N3CCOCC3)cc2)N1C(=O)CCl` [Compound 115], the “Whole Blood Stability % Remaining at 37° C. Mouse” value is reported as 0.0%.

On to `C[C@H]1Cc2c([nH]c3ccccc23)[C@H](c2ccc(NCC3CC3)cc2)N1C(=O)CCl` [Compound 116], for which the “Whole Blood Stability % Remaining at 37° C. Mouse” value was determined as 67.1%.

As for `CCC[C@H]1Cc2c([nH]c3ccccc23)[C@H](c2ccc(N3CCOCC3)cc2)N1C(=O)CCl` [Compound 118], the “Whole Blood Stability % Remaining at 37° C. Mouse” value is 0.0%.

As to `COC(=O)c1ccc([C@H]2c3sc4ccccc4c3C[C@H](C(=O)OC)N2C(=O)CCl)cc1` [Example 55c], the “Whole Blood Stability % Remaining at 37° C. Mouse” value turned out to be 0.0%.

`COC(=O)c1ccc([C@@H]2c3sc4ccccc4c3C[C@H](C(=O)OC)N2C(=O)CCl)cc1` [Example 55d]: the “Whole Blood Stability % Remaining at 37° C. Mouse” value came to 0.0%.

System in another data set: not listed separately
As to the kind of experiment: Whole blood stability, human. Type of data set: in vitro ADME. To be noted: 0 min.
From the text: as §1
Take `C[C@H]1Cc2c([nH]c3ccc(F)cc23)[C@H](c2ccc(N3CCOCC3)cc2)N1C(=O)CCl` [Compound 114]: the “Whole Blood Stability % Remaining at 37° C. Human” value is on record as 100.0%.

Turning to `C[C@H]1Cc2c([nH]c3ccc(C#N)cc23)[C@H](c2ccc(N3CCOCC3)cc2)N1C(=O)CCl` [Compound 115], the “Whole Blood Stability % Remaining at 37° C. Human” value was 100.0%.

For the molecule `C[C@H]1Cc2c([nH]c3ccccc23)[C@H](c2ccc(NCC3CC3)cc2)N1C(=O)CCl` [Compound 116], the “Whole Blood Stability % Remaining at 37° C. Human” value worked out at 100.0%.

For `CCC[C@H]1Cc2c([nH]c3ccccc23)[C@H](c2ccc(N3CCOCC3)cc2)N1C(=O)CCl` [Compound 118], the “Whole Blood Stability % Remaining at 37° C. Human” value turned out to be 100.0%.

On to `COC(=O)c1ccc([C@H]2c3sc4ccccc4c3C[C@H](C(=O)OC)N2C(=O)CCl)cc1` [Example 55c], for which the “Whole Blood Stability % Remaining at 37° C. Human” value is listed as 100.0%.

As to `COC(=O)c1ccc([C@@H]2c3sc4ccccc4c3C[C@H](C(=O)OC)N2C(=O)CCl)cc1` [Example 55d], the “Whole Blood Stability % Remaining at 37° C. Human” value was found to be 100.0%.

Staying with this data set, now noted: 30 min.
As for `C[C@H]1Cc2c([nH]c3ccc(F)cc23)[C@H](c2ccc(N3CCOCC3)cc2)N1C(=O)CCl` [Compound 114], the “Whole Blood Stability % Remaining at 37° C. Human” value was 88.1%.

Consider `C[C@H]1Cc2c([nH]c3ccc(C#N)cc23)[C@H](c2ccc(N3CCOCC3)cc2)N1C(=O)CCl` [Compound 115], for which the “Whole Blood Stability % Remaining at 37° C. Human” value turned out to be 72.9%.

For `C[C@H]1Cc2c([nH]c3ccccc23)[C@H](c2ccc(NCC3CC3)cc2)N1C(=O)CCl` [Compound 116], the “Whole Blood Stability % Remaining at 37° C. Human” value was 79.2%.

With `CCC[C@H]1Cc2c([nH]c3ccccc23)[C@H](c2ccc(N3CCOCC3)cc2)N1C(=O)CCl` [Compound 118], the “Whole Blood Stability % Remaining at 37° C. Human” value is on record as 100.2%.

Take `COC(=O)c1ccc([C@H]2c3sc4ccccc4c3C[C@H](C(=O)OC)N2C(=O)CCl)cc1` [Example 55c]: the “Whole Blood Stability % Remaining at 37° C. Human” value is on record as 46.0%.

Turning to `COC(=O)c1ccc([C@@H]2c3sc4ccccc4c3C[C@H](C(=O)OC)N2C(=O)CCl)cc1` [Example 55d], the “Whole Blood Stability % Remaining at 37° C. Human” value worked out at 60.8%.

The same data set, now with this note: 60 min.
Turning to `C[C@H]1Cc2c([nH]c3ccc(F)cc23)[C@H](c2ccc(N3CCOCC3)cc2)N1C(=O)CCl` [Compound 114], the “Whole Blood Stability % Remaining at 37° C. Human” value turned out to be 50.8%.

For `C[C@H]1Cc2c([nH]c3ccc(C#N)cc23)[C@H](c2ccc(N3CCOCC3)cc2)N1C(=O)CCl` [Compound 115], the “Whole Blood Stability % Remaining at 37° C. Human” value came out at 44.0%.

For `C[C@H]1Cc2c([nH]c3ccccc23)[C@H](c2ccc(NCC3CC3)cc2)N1C(=O)CCl` [Compound 116], the “Whole Blood Stability % Remaining at 37° C. Human” value is on record as 62.0%.

`CCC[C@H]1Cc2c([nH]c3ccccc23)[C@H](c2ccc(N3CCOCC3)cc2)N1C(=O)CCl` [Compound 118]: the “Whole Blood Stability % Remaining at 37° C. Human” value is reported as 68.8%.

On to `COC(=O)c1ccc([C@H]2c3sc4ccccc4c3C[C@H](C(=O)OC)N2C(=O)CCl)cc1` [Example 55c], for which the “Whole Blood Stability % Remaining at 37° C. Human” value worked out at 27.5%.

For the molecule `COC(=O)c1ccc([C@@H]2c3sc4ccccc4c3C[C@H](C(=O)OC)N2C(=O)CCl)cc1` [Example 55d], the “Whole Blood Stability % Remaining at 37° C. Human” value was determined as 41.2%.

In another data set the test system is KP4. Put plainly: Cell viability assay (CellTiter Glo), pancreatic ductal adenocarcinoma KP4. Format: cell-based, human. To be noted: Homo sapiens, KP-4, 96 h, pancreatic cancer cell line KP4, 96 hours, CellTiter Glo; read-out: IC50 μM KP4. In short, it runs like this: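 Luminescent ATP readout (CellTiter Glo) after 96 h compound exposure, normalized to DMSO-treated cells as maximum. Compounds ran in duplicate, nine 3-fold steps from 30 μM down to 4.6 nM, final DMSO ≤0.25%; KP4 plated overnight at 1,000–10,000 cells/well. Outputs: IC50, relative IC50 or % top inhibition.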
On to `C[C@H]1Cc2c([nH]c3ccc(F)cc23)[C@H](c2ccc(N3CCOCC3)cc2)N1C(=O)CCl` [Compound 114], for which the IC50 is below 0.01 µM.

`C[C@H]1Cc2c([nH]c3ccc(C#N)cc23)[C@H](c2ccc(N3CCOCC3)cc2)N1C(=O)CCl` [Compound 115]: the IC50 is below 0.01 µM.

Take `C[C@H]1Cc2c([nH]c3ccccc23)[C@H](c2ccc(NCC3CC3)cc2)N1C(=O)CCl` [Compound 116]: the IC50 is 0.1 to 0.5 µM.

For `CCC[C@H]1Cc2c([nH]c3ccccc23)[C@H](c2ccc(N3CCOCC3)cc2)N1C(=O)CCl` [Compound 118], the IC50 was below 0.01 µM.

Take `COC(=O)c1ccc([C@H]2c3sc4ccccc4c3C[C@H](C(=O)OC)N2C(=O)CCl)cc1` [Example 55c]: the IC50 fell in the range of 0.01 to 0.1 µM.

As for `COC(=O)c1ccc([C@@H]2c3sc4ccccc4c3C[C@H](C(=O)OC)N2C(=O)CCl)cc1` [Example 55d], the IC50 was 0.1 to 0.5 µM.
